What was measured:
[1] = system: ASPC-1 tumor-bearing mice; experiment: Biodistribution of radionuclide labeled complexes in ASPC-1 tumor-bearing mice; type: in vivo, BALB/c nude mice
Procedure, shortened: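 BALB/c nude mice bore subcutaneous flank xenografts from ~4×10^6 NTSR-1-expressing cells, grown 2-4 weeks to ~0.05-0.50 g. Labeled compound, ~30-50 μCi (30-250 μCi/nmol specific activity) in 0.9% NaCl, was given by tail vein; organs were excised, weighed and γ-counted at various times for % ID and % ID/g.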

[2] = system: ASPC-1 tumor-bearing mice; experiment: SPECT/CT imaging of ^177Lu-labeled complexes; type: in vivo; settings: over 72 hours
Protocol: ASPC-1 tumor-bearing mice were IV-injected with about 120 μCi of ^177Lu-labeled complexes, then anesthetized under 2% isoflurane/oxygen gas and placed on the scanner. SPECT/CT images were acquired in three bed positions for 30 min using a MILabs SPECT scanner. Whole-body SPECT images were acquired at 1 h, 4 h, 24 and 72 h after injecting the radiotracers.

[3] = Stability of ^177Lu labeled complexes in PBS by radio-HPLC; type: physicochemical; settings: incubation at room temperature over 120 h in PBS (pH 7.4) or PBS with 3 mg/mL ascorbic acid
Protocol: Exemplary compounds of the present application were labeled with ^177Lu to evaluate stability of the compounds after radionuclide labeling. Briefly, 4 μL exemplary compounds in DMSO stock solution (2000 μM) and 2 mCi ^177Lu (ITM Isotope Technologies Munich) were mixed together in 0.5 M NaOAc buffer (20-50 μL, pH=4.5), followed by incubation at 95° C. for 15 min. Then the labeled complexes were subject to radio-TLC analysis (a polyamide film using methanol and 1M ammonium acetate as the mobile phase, v/v: 4:1, detected by Mini Scan) and radio-HPLC analysis (column: Shim-pack GIST 5 μm 4.6*150 mm; buffer A: 0.2% formic acid H2O; buffer B: 0.1% formic acid acetonitrile; flow rate: 1 mL/min; gradient: 0-5 min: 10% B to 95% B; then 5-8 min: 95% B).
After radionuclide labeling, the complexes were diluted to ˜1.5 mCi/0.30 mL by PBS (pH 7.4) or PBS with 3 mg/mL ascorbic acid (pH 7.4). Then the diluted samples were incubated at room temperature, followed by stability analysis via radio-HPLC at 0, 4, 24, 48, 72, 120 h of incubation, respectively. FIG. 1 illustrates stability analysis of a representative complex ^177Lu—I-7.

HT-29 tumor-bearing mice = experiment: Biodistribution of radionuclide labeled complexes in HT-29 tumor-bearing mice; type: in vivo, BALB/c nude mice; settings: Blood
Protocol: The BALB/c nude mice (Charles River, Beijing) were utilized to establish the xenografted model for biodistribution study. All animal care and experimental procedure were performed by following the animal protocols approved by the ethics committee of China Institute of Radiation Protection.
Briefly, each mouse was inoculated with approximately 4×10^6 ASPC-1 cells (human pancreatic cancer cell line) or HT-29 cells (human colorectal adenocarcinoma cell line) expressing human NTSR-1 by subcutaneous injection at rear flank. After inoculation, the xenografted tumors were allowed to grow for ˜2-4 weeks till the tumor weight reached to about 0.05 to 0.50 g (0.20 g in average).
Biodistribution studies were performed by administrating the radionuclide labeled test compound at a dose of ˜30-50 μCi (100 μL in 0.9% NaCl, ˜1.11-1.85 MBq, with specific activity 30-250 μCi/nmol) to each animal through tail vein injection.
At different time points after the administration, the mice treated with each compound were euthanized. The tissues and organs of the animals in each group were collected, excised, weighed, and analyzed in a PerkinElmer 2480 WIZARD2γ counter, and the percent injected dose (% ID) and % ID/g of each organ or tissue were calculated.

In the case of `COc1cccc(OC)c1-c1cc(C(=O)NC2(C(=O)O)C3CC4CC(C3)CC2C4)nn1-c1ccc(OCCCN(C)CCCN(C)C(=O)CN2CCN(CC(=O)[O-])CCN(CC(=O)[O-])CCN(CC(=O)[O-])CC2)cc1C(C)C.[177Lu+3]` (centres unmarked) [^177Lu-I-7], the “tumor AUC over 72 hours compared to ^177Lu—C2” value [1] is reported as “significantly higher tumor AUC”, the “% ID/g (1 h) Blood” value ([1]; Blood, 1 h) is reported as 9.79 ± 1.66 % ID/g and the “% ID/g (4 h) Blood” value ([1]; Blood, 4 h) is reported as 1.8 ± 0.62 % ID/g. The “% ID/g (24 h) Blood” value ([1]; Blood, 24 h) was 0.07 ± 0.01 % ID/g, the “% ID/g (72 h) Blood” value ([1]; Blood, 72 h) was 0.01 ± 0 % ID/g and the “% ID/g (1 h) Femur” value ([1]; Femur, 1 h) was 1.65 ± 0.23 % ID/g. For the same molecule, the “% ID/g (4 h) Femur” value ([1]; Femur, 4 h) was 0.49 ± 0.25 % ID/g, the “% ID/g (24 h) Femur” value ([1]; Femur, 24 h) was 0.12 ± 0.04 % ID/g and the “% ID/g (72 h) Femur” value ([1]; Femur, 72 h) was 0.06 ± 0.03 % ID/g. For the same molecule, the “% ID/g (1 h) Heart” value ([1]; Heart, 1 h) was 3.47 ± 0.56 % ID/g, the “% ID/g (4 h) Heart” value ([1]; Heart, 4 h) was 0.58 ± 0.32 % ID/g and the “% ID/g (24 h) Heart” value ([1]; Heart, 24 h) was 0.29 ± 0.14 % ID/g. The “% ID/g (72 h) Heart” value ([1]; Heart, 72 h) was 0.08 ± 0.01 % ID/g, the “% ID/g (1 h) Intestine” value ([1]; Intestine, 1 h) was 2.53 ± 0.58 % ID/g and the “% ID/g (4 h) Intestine” value ([1]; Intestine, 4 h) was 1.69 ± 0.45 % ID/g. For the same molecule, the “% ID/g (24 h) Intestine” value ([1]; Intestine, 24 h) was 0.62 ± 0.04 % ID/g, the “% ID/g (72 h) Intestine” value ([1]; Intestine, 72 h) was 0.19 ± 0.07 % ID/g and the “% ID/g (1 h) Kidney” value ([1]; Kidney, 1 h) was 2.85 ± 0.45 % ID/g. For the same molecule, the “% ID/g (4 h) Kidney” value ([1]; Kidney, 4 h) was 2.05 ± 0.48 % ID/g, the “% ID/g (24 h) Kidney” value ([1]; Kidney, 24 h) was 1.2 ± 0.17 % ID/g and the “% ID/g (72 h) Kidney” value ([1]; Kidney, 72 h) was 0.48 ± 0.12 % ID/g. The “% ID/g (1 h) Liver” value ([1]; Liver, 1 h) was 3.93 ± 0.43 % ID/g, the “% ID/g (4 h) Liver” value ([1]; Liver, 4 h) was 1.88 ± 1.00 % ID/g and the “% ID/g (24 h) Liver” value ([1]; Liver, 24 h) was 0.84 ± 0.09 % ID/g. The “% ID/g (72 h) Liver” value ([1]; Liver, 72 h) was 0.23 ± 0.01 % ID/g, the “% ID/g (1 h) Lung” value ([1]; Lung, 1 h) was 3.12 ± 1.25 % ID/g and the “% ID/g (4 h) Lung” value ([1]; Lung, 4 h) was 1.1 ± 0.49 % ID/g. For the same molecule, the “% ID/g (24 h) Lung” value ([1]; Lung, 24 h) was 0.43 ± 0.14 % ID/g, the “% ID/g (72 h) Lung” value ([1]; Lung, 72 h) was 0.13 ± 0.1 % ID/g and the “% ID/g (1 h) Muscle” value ([1]; Muscle, 1 h) was 1.1 ± 0.3 % ID/g. For the same molecule, the “% ID/g (4 h) Muscle” value ([1]; Muscle, 4 h) was 0.27 ± 0.2 % ID/g, the “% ID/g (24 h) Muscle” value ([1]; Muscle, 24 h) was 0.34 ± 0.3 % ID/g and the “% ID/g (72 h) Muscle” value ([1]; Muscle, 72 h) was 0.011 ± 0.01 % ID/g. The “% ID/g (1 h) Pancreas” value ([1]; Pancreas, 1 h) was 0.67 ± 0.28 % ID/g, the “% ID/g (4 h) Pancreas” value ([1]; Pancreas, 4 h) was 0.24 ± 0.22 % ID/g and the “% ID/g (24 h) Pancreas” value ([1]; Pancreas, 24 h) was 0.29 ± 0.21 % ID/g. For the same molecule, the “% ID/g (72 h) Pancreas” value ([1]; Pancreas, 72 h) was 0.02 ± 0.01 % ID/g, the “% ID/g (1 h) Spleen” value ([1]; Spleen, 1 h) was 0.63 ± 0.19 % ID/g and the “% ID/g (4 h) Spleen” value ([1]; Spleen, 4 h) was 0.58 ± 0.15 % ID/g. The “% ID/g (24 h) Spleen” value ([1]; Spleen, 24 h) was 0.23 ± 0.11 % ID/g, the “% ID/g (72 h) Spleen” value ([1]; Spleen, 72 h) was 0.06 ± 0.01 % ID/g and the “% ID/g (1 h) Stomach” value ([1]; Stomach, 1 h) was 1.01 ± 0.82 % ID/g. For the same molecule, the “% ID/g (4 h) Stomach” value ([1]; Stomach, 4 h) was 0.58 ± 0.59 % ID/g, the “% ID/g (24 h) Stomach” value ([1]; Stomach, 24 h) was 0.21 ± 0.08 % ID/g and the “% ID/g (72 h) Stomach” value ([1]; Stomach, 72 h) was 0.04 ± 0.01 % ID/g. For the same molecule, the “% ID/g (1 h) Tumor” value ([1]; Tumor, 1 h) was 15.27 ± 8.72 % ID/g, the “% ID/g (4 h) Tumor” value ([1]; Tumor, 4 h) was 19.97 ± 10.42 % ID/g and the “% ID/g (24 h) Tumor” value ([1]; Tumor, 24 h) was 22.83 ± 1.14 % ID/g. For the same molecule, the “% ID/g (72 h) Tumor” value ([1]; Tumor, 72 h) was 18.07 ± 0.98 % ID/g, the “ratio of tumor AUC verse normal organ AUC” value ([1]; compared to ^177Lu—C2) was “significantly improved” and the “clearance from other organs or tissues (SPECT/CT)” value [2] was “rapid clearance”. For the same molecule, the “retention in tumors (SPECT/CT)” value [2] was “sustained retention in tumors”, the “stability of the labeled complex” value [3] was “remained stable and no significant degradation was detected” and the “% ID/g (1 h) Blood” value (HT-29 tumor-bearing mice; 1 h) was 16.51 ± 0.56 % ID/g. The “% ID/g (4 h) Blood” value (HT-29 tumor-bearing mice; 4 h) was 2.85 ± 1.23 % ID/g and the “% ID/g (24 h) Blood” value (HT-29 tumor-bearing mice; 24 h) was 0.06 ± 0.02 % ID/g.

Source: patent US20240287046A1, “COMPOUNDS AND RADIOLIGANDS FOR TARGETING NEUROTENSIN RECEPTOR AND USES THEREOF” (Full-Life Technologies HK Limited, priority 2022, published 2024)
